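Method: 48-hour compound exposure of cells in 96-well plates, five concentrations, linear interpolation of endpoints. At the GI50, growth is halved. TGI is the concentration that stops growth completely.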
How the values were obtained:
Test in all cases: DTP human tumour cell line panel, 48 h
786-0 renal = system: 786-0 renal
A498 renal = system: A498 renal
A549 NSCLC = system: A549 NSCLC
ACHN renal = system: ACHN renal
BT-549 breast = system: BT-549 breast
CAKI-1 renal = system: CAKI-1 renal
CCRF-CEM leukemia = system: CCRF-CEM leukemia
COLO 205 colon = system: COLO 205 colon
DU-145 prostate = system: DU-145 prostate
HCC-2998 colon = system: HCC-2998 colon
HL-60(TB) leukemia = system: HL-60(TB) leukemia
HOP-62 NSCLC = system: HOP-62 NSCLC
HOP-92 NSCLC = system: HOP-92 NSCLC
HS 578T breast = system: HS 578T breast
HT29 colon = system: HT29 colon
IGROV1 ovarian = system: IGROV1 ovarian
K-562 leukemia = system: K-562 leukemia
KM12 colon = system: KM12 colon
LOX IMVI melanoma = system: LOX IMVI melanoma
M14 melanoma = system: M14 melanoma
MALME-3M melanoma = system: MALME-3M melanoma
MCF7 breast = system: MCF7 breast
MDA-MB-231 breast = system: MDA-MB-231 breast
MDA-MB-435 = system: MDA-MB-435
MOLT-4 leukemia = system: MOLT-4 leukemia
NCI-H226 lung = system: NCI-H226 lung
NCI-H23 lung = system: NCI-H23 lung
NCI-H460 lung = system: NCI-H460 lung
NCI-H522 lung = system: NCI-H522 lung
NCI/ADR-RES ovarian = system: NCI/ADR-RES ovarian
OVCAR-3 ovarian = system: OVCAR-3 ovarian
OVCAR-4 ovarian = system: OVCAR-4 ovarian
OVCAR-5 ovarian = system: OVCAR-5 ovarian
OVCAR-8 ovarian = system: OVCAR-8 ovarian
PC-3 prostate = system: PC-3 prostate
RPMI-8226 leukemia = system: RPMI-8226 leukemia
SF-268 CNS = system: SF-268 CNS
SF-295 CNS = system: SF-295 CNS
SF-539 CNS = system: SF-539 CNS
SK-MEL-2 melanoma = system: SK-MEL-2 melanoma
SK-MEL-28 melanoma = system: SK-MEL-28 melanoma
SK-MEL-5 melanoma = system: SK-MEL-5 melanoma
SK-OV-3 ovarian = system: SK-OV-3 ovarian
SN12C renal = system: SN12C renal
SNB-19 CNS = system: SNB-19 CNS
SNB-75 CNS = system: SNB-75 CNS
SR leukemia = system: SR leukemia
SW-620 colon = system: SW-620 colon
T-47D breast = system: T-47D breast
TK-10 renal = system: TK-10 renal
U251 CNS = system: U251 CNS
UACC-257 melanoma = system: UACC-257 melanoma
UACC-62 melanoma = system: UACC-62 melanoma
UO-31 renal = system: UO-31 renal

With `COc1ccc2c(c1)O/C(=C\c1ncc([N+](=O)[O-])n1C)C2=O` the GI50 (786-0 renal) was 805 nM, the TGI (786-0 renal) was 3890 nM and the GI50 (A498 renal) was 1200 nM. For the same compound, the TGI (A498 renal) was 2680 nM, the GI50 (A549 NSCLC) was 561 nM and the TGI (A549 NSCLC) was 4540 nM. For the same compound, the GI50 (ACHN renal) was 158 nM, the TGI (ACHN renal) was 495 nM and the GI50 (BT-549 breast) was 684 nM. The TGI (BT-549 breast) was 2940 nM, the GI50 (CAKI-1 renal) was 202 nM and the TGI (CAKI-1 renal) was 544 nM. The GI50 (CCRF-CEM leukemia) was 264 nM, the TGI (CCRF-CEM leukemia) was 2020 nM and the GI50 (COLO 205 colon) was 363 nM. For the same compound, the TGI (COLO 205 colon) was 2240 nM, the GI50 (DU-145 prostate) was 285 nM and the TGI (DU-145 prostate) was 794 nM. The GI50 (HCC-2998 colon) was 899 nM, the TGI (HCC-2998 colon) was 4190 nM and the GI50 (HL-60(TB) leukemia) was 331 nM. For the same compound, the GI50 (HOP-62 NSCLC) was 1100 nM, the TGI (HOP-62 NSCLC) was 4180 nM and the GI50 (HOP-92 NSCLC) was 555 nM. The TGI (HOP-92 NSCLC) was 4050 nM, the GI50 (HS 578T breast) was 641 nM and the TGI (HS 578T breast) was greater than 21900 nM. It also gave a GI50 (HT29 colon) of 291 nM, a TGI (HT29 colon) of 1390 nM and a GI50 (IGROV1 ovarian) of 558 nM. For the same compound, the TGI (IGROV1 ovarian) was 9860 nM, the GI50 (K-562 leukemia) was 414 nM and the GI50 (KM12 colon) was 776 nM. For the same compound, the TGI (KM12 colon) was 2810 nM, the GI50 (LOX IMVI melanoma) was 256 nM and the TGI (LOX IMVI melanoma) was 889 nM. The GI50 (M14 melanoma) was 363 nM, the TGI (M14 melanoma) was 1530 nM and the GI50 (MALME-3M melanoma) was 379 nM. The TGI (MALME-3M melanoma) was 1700 nM, the GI50 (MCF7 breast) was 495 nM and the TGI (MCF7 breast) was 9370 nM. For the same compound, the GI50 (MDA-MB-231 breast) was 256 nM, the TGI (MDA-MB-231 breast) was 1380 nM and the GI50 (MDA-MB-435) was 224 nM. It also gave a TGI (MDA-MB-435) of 735 nM, a GI50 (MOLT-4 leukemia) of 45.3 nM and a GI50 (NCI-H226 lung) of 1430 nM. The TGI (NCI-H226 lung) was 4270 nM, the GI50 (NCI-H23 lung) was 257 nM and the TGI (NCI-H23 lung) was 1320 nM. For the same compound, the GI50 (NCI-H460 lung) was 201 nM, the TGI (NCI-H460 lung) was 619 nM and the GI50 (NCI-H522 lung) was 266 nM. It also gave a TGI (NCI-H522 lung) of 927 nM, a GI50 (NCI/ADR-RES ovarian) of 584 nM and a TGI (NCI/ADR-RES ovarian) of 9510 nM. For the same compound, the GI50 (OVCAR-3 ovarian) was 376 nM, the TGI (OVCAR-3 ovarian) was 1880 nM and the GI50 (OVCAR-4 ovarian) was 2520 nM. The TGI (OVCAR-4 ovarian) was greater than 100000 nM, the GI50 (OVCAR-5 ovarian) was 1870 nM and the TGI (OVCAR-5 ovarian) was 6390 nM. For the same compound, the GI50 (OVCAR-8 ovarian) was 245 nM, the TGI (OVCAR-8 ovarian) was 1940 nM and the GI50 (PC-3 prostate) was 2240 nM. For the same compound, the TGI (PC-3 prostate) was greater than 29200 nM, the GI50 (RPMI-8226 leukemia) was 1340 nM and the TGI (RPMI-8226 leukemia) was 5750 nM. For the same compound, the GI50 (SF-268 CNS) was 268 nM, the TGI (SF-268 CNS) was 1140 nM and the GI50 (SF-295 CNS) was 1400 nM. For the same compound, the TGI (SF-295 CNS) was 5310 nM, the GI50 (SF-539 CNS) was 1270 nM and the TGI (SF-539 CNS) was 3200 nM. It also gave a GI50 (SK-MEL-2 melanoma) of 1130 nM, a TGI (SK-MEL-2 melanoma) of 3700 nM and a GI50 (SK-MEL-28 melanoma) of 371 nM. It also gave a TGI (SK-MEL-28 melanoma) of 2550 nM, a GI50 (SK-MEL-5 melanoma) of 246 nM and a TGI (SK-MEL-5 melanoma) of 837 nM. The GI50 (SK-OV-3 ovarian) was 1560 nM, the TGI (SK-OV-3 ovarian) was 6860 nM and the GI50 (SN12C renal) was 472 nM. It also gave a TGI (SN12C renal) of 2090 nM, a GI50 (SNB-19 CNS) of 1180 nM and a TGI (SNB-19 CNS) of 6260 nM. The GI50 (SNB-75 CNS) was 974 nM, the TGI (SNB-75 CNS) was 3780 nM and the GI50 (SR leukemia) was 29.4 nM. It also gave a GI50 (SW-620 colon) of 178 nM, a TGI (SW-620 colon) of 1310 nM and a GI50 (T-47D breast) of 5460 nM. It also gave a TGI (T-47D breast) greater than 100000 nM, a GI50 (TK-10 renal) of 1260 nM and a TGI (TK-10 renal) greater than 20000 nM. For the same compound, the GI50 (U251 CNS) was 812 nM, the TGI (U251 CNS) was 3050 nM and the GI50 (UACC-257 melanoma) was 590 nM. It also gave a TGI (UACC-257 melanoma) of 2160 nM, a GI50 (UACC-62 melanoma) of 848 nM and a TGI (UACC-62 melanoma) of 2410 nM. The GI50 (UO-31 renal) was 334 nM and the TGI (UO-31 renal) was 1890 nM.

Source: PubChem BioAssay (NCI)
